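Method: 48-hour compound exposure of cells in 96-well plates, five concentrations, linear interpolation of endpoints. GI50 is the concentration that inhibits growth by half.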 Active and inactive are the calls of the source. Rule as the data show it: active = GI50 up to about 1.1 µM and inactive = higher.
Tests used:
Assay in all cases: DTP human tumour cell line panel, 48 h
[1] = system: HL-60
[2] = system: HCC 2998
[3] = system: UACC-257
[4] = system: NCI/ADR-RES
[5] = system: BT-549
[6] = system: IGROV-1
[7] = system: SNB-19
[8] = system: CAKI-1
[9] = system: UO-31
[10] = system: SF-539
[11] = system: MCF7
[12] = system: SN12C
[13] = system: HCT-15
[14] = system: U-251
[15] = system: NCI-H23
[16] = system: KM12
[17] = system: MOLT-4
[18] = system: PC-3
[19] = system: Malme-3M
[20] = system: LOX IMVI

Row | Structure (SMILES) | GI50 [1] | GI50 [2] | GI50 [3] | GI50 [4] | GI50 [5] | GI50 [6] | GI50 [7] | GI50 [8] | GI50 [9] | GI50 [10] | GI50 [11] | GI50 [12] | GI50 [13] [µM] | GI50 [14] | GI50 [15] | GI50 [16] | GI50 [17] | GI50 [18] | GI50 [19] | GI50 [20]
1 | CCCCCCCCOC(=O)C12Oc3ccc(-c4ccc5c(c4O)C(=O)C4=C(O)CC(C)C(O)C4(C(=O)OCCCCCCCC)O5)c(O)c3C(=O)C1=C(O)CC(C)C2O (stereo not given) | 2.92 µM (inactive) | 28.9 µM (inactive) | 34.8 µM (inactive) | 30.7 µM (inactive) | 9.59 µM (inactive) | 8.67 µM (inactive) | 8.85 µM (inactive) | 25.2 µM (inactive) | 24.7 µM (inactive) | 4.21 µM (inactive) | 11.4 µM (inactive) | 27.7 µM (inactive) | 25 | 4.06 µM (inactive) | 10.2 µM (inactive) | 10.8 µM (inactive) | 16.3 µM (inactive) | 23.2 µM (inactive) | 32.4 µM (inactive) | 25.5 µM (inactive)
2 | C=C1CC[C@@]2(OC1)OC1C[C@H]3[C@@H]4CC=C5C[C@@H](O)CC(OC6OCC(OC(=O)[C@@H](O)[C@@H](C)CC)C(OC(C)=O)C6OC6OC(C)C(O)C(O)C6O)[C@]5(C)[C@H]4CC[C@]3(C)C1[C@@H]2C (stereo not given in full) | 1.81 µM (inactive) | 1.6 µM (inactive) | 2.21 µM (inactive) | 2.32 µM (inactive) | 3.76 µM (inactive) | 2.56 µM (inactive) | 1.96 µM (inactive) | 2.65 µM (inactive) | 2.4 µM (inactive) | 2.31 µM (inactive) | 1.84 µM (inactive) | 2.25 µM (inactive) | 1.91 | 1.75 µM (inactive) | 2.44 µM (inactive) | 2.14 µM (inactive) | 1.7 µM (inactive) | 1.67 µM (inactive) | 3.84 µM (inactive) | 1.87 µM (inactive)
3 | FC(F)(F)c1nc2ccc(SSc3ccc4nc(C(F)(F)F)[nH]c4c3)cc2[nH]1 | 48.8 µM (inactive) | 38.3 µM (inactive) | 35.9 µM (inactive) | > 10 µM (inactive) | 92.7 µM (inactive) | > 10 µM (inactive) | > 10 µM (inactive) | > 10 µM (inactive) | 31.6 µM (inactive) | 41.8 µM (inactive) | 35.7 µM (inactive) | 46.7 µM (inactive) | 93.5 | 84.1 µM (inactive) | 47.5 µM (inactive) | > 10 µM (inactive) | 27.3 µM (inactive) | 36.6 µM (inactive) | > 10 µM (inactive) | 40.5 µM (inactive)
4 | COc1ccc(-c2nc3cc(F)ccc3s2)cc1O | 32.6 µM (inactive) | 2.57 µM (inactive) | 24.9 µM (inactive) | 46.3 µM (inactive) | 17.2 µM (inactive) | 3.81 µM (inactive) | 61.7 µM (inactive) | 23.3 µM (inactive) | 30.8 µM (inactive) | 38.5 µM (inactive) | 0.668 µM (active) | 84.3 µM (inactive) | 3.05 | 30.1 µM (inactive) | 29.3 µM (inactive) | 12.2 µM (inactive) | > 100 µM (inactive) | 34.7 µM (inactive) | 35.1 µM (inactive) | 21.1 µM (inactive)
5 | CCc1nc(N)nc(N)c1-c1ccc(Cl)c([N+](=O)[O-])c1 | 0.053 µM (active) | 2.95 µM (inactive) | 6.14 µM (inactive) | 0.334 µM (active) | 31.2 µM (inactive) | 0.0778 µM (active) | 10.5 µM (inactive) | 0.242 µM (active) | 1.18 µM (inactive) | 0.325 µM (active) | 0.274 µM (active) | 1.79 µM (inactive) | 0.0685 | 0.126 µM (active) | 0.0887 µM (active) | 0.535 µM (active) | 0.258 µM (active) | 0.0897 µM (active) | 18.4 µM (inactive) | 0.0524 µM (active)
6 | COc1ccc(N2C(=O)C3c4[nH]c5ccc(OCc6ccccc6)cc5c4C4CCC(c5ccccc5)CC4C3C2=O)cc1 (stereo not given) | 0.34 µM (active) | 4.84 µM (inactive) | 42.9 µM (inactive) | 18.8 µM (inactive) | 4.55 µM (inactive) | 8.85 µM (inactive) | 11 µM (inactive) | 8.18 µM (inactive) | 53.6 µM (inactive) | 3.01 µM (inactive) | 29.6 µM (inactive) | 33.7 µM (inactive) | 11.6 | 2.54 µM (inactive) | 9.62 µM (inactive) | 27 µM (inactive) | 14.7 µM (inactive) | 8.53 µM (inactive) | 2.35 µM (inactive) | 15.2 µM (inactive)
7 | O=C1Nc2ccccc2/C1=C/c1c(Cl)[nH]c2ccc(O)cc12 | 0.836 µM (active) | 11.7 µM (inactive) | 10.6 µM (inactive) | 0.944 µM (active) | 4.84 µM (inactive) | 1.69 µM (inactive) | 3.21 µM (inactive) | 3.74 µM (inactive) | 3.9 µM (inactive) | 0.544 µM (active) | 1.17 µM (inactive) | 0.641 µM (active) | 0.971 | 1.33 µM (inactive) | 2.63 µM (inactive) | 1.37 µM (inactive) | 1 µM (active) | 2.32 µM (inactive) | 0.736 µM (active) | 2.75 µM (inactive)
8 | CO/N=C(\C(=O)N(C)n1cnnc1)c1csc(NC(c2ccccc2)(c2ccccc2)c2ccccc2)n1 | > 10 µM (inactive) | > 10 µM (inactive) | > 10 µM (inactive) | > 10 µM (inactive) | > 10 µM (inactive) | > 10 µM (inactive) | > 10 µM (inactive) | > 10 µM (inactive) | > 10 µM (inactive) | > 10 µM (inactive) | > 10 µM (inactive) | > 10 µM (inactive) | > 10 | > 10 µM (inactive) | > 10 µM (inactive) | > 10 µM (inactive) | > 10 µM (inactive) | > 10 µM (inactive) | > 10 µM (inactive) | > 10 µM (inactive)
9 | COc1ccc2nc3cc(Cl)ccc3c(NCCCCCC(=O)NC(COc3cnc4c(ccc5cccnc54)c3)COc3cnc4c(ccc5cccnc54)c3)c2c1 | 3.44 µM (inactive) | 12.6 µM (inactive) | 8.93 µM (inactive) | > 100 µM (inactive) | 10.5 µM (inactive) | 10 µM (inactive) | 13.6 µM (inactive) | 36.1 µM (inactive) | 74.5 µM (inactive) | 10.9 µM (inactive) | 5.04 µM (inactive) | 22.9 µM (inactive) | > 100 | 8.53 µM (inactive) | 28.2 µM (inactive) | 5.92 µM (inactive) | 1.65 µM (inactive) | 13.9 µM (inactive) | 34.9 µM (inactive) | 3.72 µM (inactive)
10 | CN(C(=O)c1ccncc1)c1ccccc1 | > 100 µM (inactive) | > 100 µM (inactive) | > 100 µM (inactive) | > 100 µM (inactive) | > 100 µM (inactive) | > 100 µM (inactive) | > 100 µM (inactive) | > 100 µM (inactive) | > 100 µM (inactive) | > 100 µM (inactive) | > 100 µM (inactive) | > 100 µM (inactive) | > 100 | > 100 µM (inactive) | > 100 µM (inactive) | > 100 µM (inactive) | > 100 µM (inactive) | > 100 µM (inactive) | > 100 µM (inactive) | > 100 µM (inactive)
11 | OCC1OC(O[C@H]2CN3[C@H](O)[C@@H](O)[C@H](O)[C@H]3C2O)C(O)C(O)C1O (stereo not given in full) | > 100 µM (inactive) | > 100 µM (inactive) | > 100 µM (inactive) | > 100 µM (inactive) | > 100 µM (inactive) | > 100 µM (inactive) | > 100 µM (inactive) | > 100 µM (inactive) | > 100 µM (inactive) | > 100 µM (inactive) | > 100 µM (inactive) | > 100 µM (inactive) | > 100 | > 100 µM (inactive) | > 100 µM (inactive) | > 100 µM (inactive) | > 100 µM (inactive) | > 100 µM (inactive) | > 100 µM (inactive) | > 100 µM (inactive)
12 | O=C(NCc1cccnc1)C(=O)NCc1cccnc1 | 27.4 µM (inactive) | > 100 µM (inactive) | > 100 µM (inactive) | > 100 µM (inactive) | > 100 µM (inactive) | > 100 µM (inactive) | > 100 µM (inactive) | > 100 µM (inactive) | > 100 µM (inactive) | > 100 µM (inactive) | > 100 µM (inactive) | > 100 µM (inactive) | > 100 | > 100 µM (inactive) | > 100 µM (inactive) | > 100 µM (inactive) | 0.149 µM (active) | > 100 µM (inactive) | > 100 µM (inactive) | > 100 µM (inactive)
13 | NC1CCCCC1NCCNC1CCCCC1N (stereo not given) | > 100 µM (inactive) | 32.8 µM (inactive) | > 100 µM (inactive) | > 100 µM (inactive) | > 100 µM (inactive) | 75.7 µM (inactive) | > 100 µM (inactive) | 82.4 µM (inactive) | > 100 µM (inactive) | > 100 µM (inactive) | 45.9 µM (inactive) | > 100 µM (inactive) | > 100 | 30.5 µM (inactive) | 29.9 µM (inactive) | > 100 µM (inactive) | 36.1 µM (inactive) | > 100 µM (inactive) | > 100 µM (inactive) | 86.5 µM (inactive)

From ChEMBL document CHEMBL1201862, “PubChem BioAssay data set” (2004)
